# PMC3751846, “BET Inhibition Silences Expression of MYCN and BCL2 and Induces Cytotoxicity in Neuroblastoma Tumor Models” (PLoS ONE, 2013)
# Read-outs that look alike come from different tables or passages of the source.
# Tests used:
# Assay in all cases: cells
# [1] = system: CHP-212; parameters: species or system neuroblastoma cell lines; 6 day growth-death assay, CellTiter-Fluor read-out, mid-point of growth window (DMSO to T0); settings: Homo sapiens, CHP-212, 144 h; CellTiter-Fluor, 6 days; read-out: gIC50 CellTiter-Fluor
# Procedure: (§1) Cell line growth-death assays were performed as described, with a few modifications. Briefly, cells were seeded into 384-well or 96-well plates at a density optimized for 6 days of growth. The following day, T0 measurements were taken using CellTiter-Glo (CTG; Promega, Madison, WI), CellTiter-Fluor (Promega), or CyQuant Direct (Life Technologies), following the manufacturer’s instructions. Plates were read on an Envision (PerkinElmer, Waltham, MA), Safire 2 (Tecan, Durham, NC), or SpectraMax Gemini EM (Molecular Devices, Sunnyvale, CA) plate reader. […] Cells were incubated for 6 days and developed as described above. Results were plotted as a percentage of the T0 value, normalized to 100%, versus concentration of compound. A 4-parameter equation was used to generate concentration response curves. Growth IC50 (gIC50) values were calculated at the mid-point of the growth window (between DMSO and T0 values). Ymin-T0 values were calculated by subtracting the T0 value (100%) from the Ymin value on the curve, and are a measure of net population cell growth or death.
# [2] = system: SK-N-BE(2); parameters: species or system neuroblastoma cell lines; 6 day growth-death assay, CellTiter-Fluor read-out, mid-point of growth window (DMSO to T0); settings: Homo sapiens, SKNBE2, 144 h; CellTiter-Fluor, 6 days; read-out: gIC50 CellTiter-Fluor
# Procedure: as §1
# [3] = system: SK-N-AS; parameters: species or system neuroblastoma cell lines; 6 day growth-death assay, CellTiter-Fluor read-out, mid-point of growth window (DMSO to T0); settings: Homo sapiens, SK-N-AS, 144 h; CellTiter-Fluor, 6 days; read-out: gIC50 CellTiter-Fluor
# Procedure: as §1
# [4] = system: LA1-5s; parameters: species or system neuroblastoma cell lines; 6 day growth-death assay, CellTiter-Fluor read-out, mid-point of growth window (DMSO to T0); settings: Neuroblastoma cell, 144 h; CellTiter-Fluor, 6 days; read-out: gIC50 CellTiter-Fluor
# Procedure: as §1
# [5] = system: CHP-212; parameters: species or system neuroblastoma cell lines; 6 day growth-death assay, CyQuant Direct read-out, mid-point of growth window (DMSO to T0); settings: Homo sapiens, CHP-212, 144 h; CyQuant, 6 days; read-out: gIC50 CyQuant
# Procedure: as §1
# [6] = system: SK-N-BE(2); parameters: species or system neuroblastoma cell lines; 6 day growth-death assay, CyQuant Direct read-out, mid-point of growth window (DMSO to T0); settings: Homo sapiens, SKNBE2, 144 h; CyQuant, 6 days; read-out: gIC50 CyQuant
# Procedure: as §1
# [7] = system: SK-N-AS; parameters: species or system neuroblastoma cell lines; 6 day growth-death assay, CyQuant Direct read-out, mid-point of growth window (DMSO to T0); settings: Homo sapiens, SK-N-AS, 144 h; CyQuant, 6 days; read-out: gIC50 CyQuant
# Procedure: as §1
# [8] = system: LA1-5s; parameters: species or system neuroblastoma cell lines; 6 day growth-death assay, CyQuant Direct read-out, mid-point of growth window (DMSO to T0); settings: Neuroblastoma cell, 144 h; CyQuant, 6 days; read-out: gIC50 CyQuant
# Procedure: as §1
structure (smiles),measurement,setting,value
CC(=O)N1c2ccc(-c3ccc(C(=O)O)cc3)cc2[C@H](Nc2ccc(Cl)cc2)C[C@@H]1C [I-BET726],GI50,[1],30 nM
same,GI50,[2],20 nM
same,GI50,[3],130 nM
same,GI50,[4],25 nM
same,GI50,[5],10 nM
same,GI50,[6],80 nM
same,GI50,[7],135 nM
same,GI50,[8],10 nM
